Experimental data published in ChEMBL document CHEMBL3430912, “GSK Tres Cantos Anti-Kinetoplastid Screening (TCAKS) Data”.

Assays:
Leishmania donovani [1] = assay: (§1) GSK_TCAKS: pIC50 Leishmania donovani Imaging: Infected Macrophages. Assay plates (384-well) were prepared by adding 250nL of compound to each well. For single shot assay, the final compound concentration was 5 uM. […] Automated image analysis was performed with a script developed on Acapella High Content Imaging and Analysis Software (PerkinElmer). Output: Percent of infected macrophage cells were reported for each well.; assay type: functional, organism-based, Homo sapiens; details: THP-1
[2] = GSK_TCAKS: pIC50 HepG2 human cell line viability assay using luminiscence. […] Seeding density was checked to ensure that new mono-layers were not more than 50% confluent at the time of harvesting. Cell suspension was added to 500 mL of the same medium at a final density of 1.2 * 10^5 cells/mL. This cell suspension was dispensed (25 uL, 3000 cells per well) into 384-well clear-bottom plates using a Multidrop Combi dispenser. Prior to addition of the cell suspension, the screening compounds (250 nL) were pre-dispensed into the plates with an Echo liquid handler. Plates were incubated for 48 h at 37C, 5% CO2. After incubation, plates equilibrated at room temperature for 30 min before proceeding to develop the luminescent signal. The signal developer, CellTiter-Glo Reagent, was allowed to equilibrate at room temperature for 30 min and added to the plates (25uL per well) using a Multidrop Combi dispenser. Plates were left for 10 min at room temperature for stabilization and then read using a ViewLux.; assay type: toxicity, cell-based
[3] = system: Trypanosoma brucei brucei; assay: GSK_TCAKS: pIC50 Trypanosoma brucei viability assay using luminiscence. Assay plates (1536-well) were prepared. T. brucei cultures were harvested and counted in a CASY cell counter. A parasite suspension was prepared at a final concentration of 5 * 10^4 cells/mL in complete HMI9 medium and 6uL was dispensed to all wells containing compounds using a Multidrop Combi dispenser. 6uL of HMI9 media with 0.4% DMSO were dispensed to control columns. Plates were incubated for 24 h at 37C, 5% CO2 then tempered for 10 min at room temperature. ATP content was quantified by adding 4 uL of CellTiter-Glo Reagent (Promega) according to the manufacturer's instructions. Luminescence was measured using a ViewLux.; assay type: functional, organism-based; details: Lister 427, CASY
Trypanosoma cruzi [4] = assay: (§2) GSK_TCAKS: pIC50 H2C9 Imaging: H9c2 Host Cardiomyocytes. […] Cells were then washed once with PBS before infection. T. cruzi trypomastigotes, collected at days 5 to 8 after infection from LLC-MK2 parasite infected cultures, were allowed to swim out for 4h at 37C from a centrifuged pellet (2,500 rpm/10 min/room temperature). Trypomastigotes were then collected and counted in a CASY Cell Counter. Trypomastigotes, in supplemented DMEM, were added to H9c2 cultures in a multiplicity of infection of 1 and incubated for 18 h. Cells were washed once with PBS before incubation of the infected H9c2 monolayer with trypsin (Life-Technologies) to detach cells from the flask. Cells were counted in a CASY Cell Counter using a 150 um capillary and their density set at 5 * 10^4 cells per mL in supplemented assay DMEM. Infected H9c2 were dispensed into 384-well poly-lysine coated assay plates at 50uL per well using a Multidrop Combi dispenser. After seeding them, the plates were incubated at 37C, 5% CO2 for 72h. Cultures were then fixed and stained by addition of 50 uL of a solution containing 8% formaldehyde and 4 uM DRAQ5 DNA dye (BioStatus, UK) per well. […] Five images were collected per well for reliable statistical analysis. Automated image analysis was performed with a script developed on Acapella High Content Imaging and Analysis Software (PerkinElmer). Output: Number of H9c2 Host Cardiomyocytes nuclei to determine drug-related cytotoxicity.; assay type: functional, organism-based, Rattus norvegicus; details: H9c2, 4 h
Leishmania donovani [5] = assay: as §1, with “THP-1 Host” for “Infected”, “THP-1 cell count” for “Percent of infected macrophage cells”; assay type: functional, organism-based, Homo sapiens
Leishmania donovani [6] = assay: GSK_TCAKS: pIC50 Leishmania donovani viability assay using fluorescence intensity. Assay plates (1536-well) were prepared by adding 30nL per well of compound. For single shot assay, the final compound concentration was 5uM. […] Briefly, eGFP LdBOB axenic amastigotes were harvested, fixed and counted in a CASY cell counter (Roche-Applied Science). A final concentration of 1.5 * 10^5 cells per well were prepared in amastigote media containing 500 U/mL penicillin/streptomycin (Invitrogen) and 6uL was dispensed to each experimental well using a Multidrop Combi dispenser (Thermo Scientific). 6uL of assay media was dispensed to control columns used as reference for 100% compound response. Following incubation for 72 h at 37C, 5% CO2, 2 uL of resazurin was added to each well at a final concentration of 0.5 mM in phosphate buffered saline (PBS) with IGEPAL (Sigma-Aldrich), 0.05% (v/v).; assay type: functional, organism-based
Trypanosoma cruzi [7] = assay: as §2, with “Trypanosoma cruzi” for “H2C9”, “Infected Cells.” for “H9c2 Host Cardiomyocytes.”, “percentage” for “Number”, “infected cells per well as a second infection marker.” for “H9c2 Host Cardiomyocytes nuclei to determine drug-related cytotoxicity.”; assay type: functional, organism-based, Rattus norvegicus; details: H9c2, 4 h
Trypanosoma cruzi [8] = assay: as §2, with “Trypanosoma cruzi” for “H2C9”, “Amastigotes/Cell.” for “H9c2 Host Cardiomyocytes.”, “number” for “Number”, “amastigotes per cell as infection level measurement.” for “H9c2 Host Cardiomyocytes nuclei to determine drug-related cytotoxicity.”; assay type: functional, organism-based, Rattus norvegicus; details: H9c2, 4 h
Leishmania donovani [9] = assay: as §1, with “Amastigotes/Macrophages.” for “Infected Macrophages.”, “Average number” for “Percent”, “amastigotes per” for “infected”, “cell” for “cells”; assay type: functional, organism-based, Homo sapiens; details: THP-1
[10] = molecular target: Sterol 14-alpha demethylase (Trypanosoma cruzi (strain CL Brener), UniProt Q7Z1V1); assay: GSK_TCAKS: pIC50 CYP51 from Trypanosoma cruzi.; assay type: functional
Sterol 14-alpha demethylase, sequence (Q7Z1V1 whole entry): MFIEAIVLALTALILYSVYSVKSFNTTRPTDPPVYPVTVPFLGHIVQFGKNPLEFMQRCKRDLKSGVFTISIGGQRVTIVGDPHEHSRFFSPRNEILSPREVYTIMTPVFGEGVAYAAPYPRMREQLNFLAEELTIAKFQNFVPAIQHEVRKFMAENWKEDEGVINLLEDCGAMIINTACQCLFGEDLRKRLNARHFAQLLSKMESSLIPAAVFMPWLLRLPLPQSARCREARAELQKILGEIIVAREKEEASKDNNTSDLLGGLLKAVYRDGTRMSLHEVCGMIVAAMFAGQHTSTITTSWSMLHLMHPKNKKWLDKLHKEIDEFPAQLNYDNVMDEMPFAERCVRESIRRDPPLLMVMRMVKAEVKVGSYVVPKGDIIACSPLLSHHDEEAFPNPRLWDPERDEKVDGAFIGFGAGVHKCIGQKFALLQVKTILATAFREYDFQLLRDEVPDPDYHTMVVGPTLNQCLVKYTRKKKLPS

Trypanosoma cruzi [11] = assay: GSK_TCAKS: pIC50 Trypanosoma cruzi viability assay using beta-GAL activity. This assay was run at single shot at 5uM compound concentration per well. The biological reagents consisted of NIH-3T3 host cells and trypomastigotes parasitic cells; both cell types were set to a 3.3 * 10^5 cells/mL dilution in assay DMEM by means of a CASY cell counter device using a 60um capillary. 6 uL of the mixture were dispensed per well (about 1 * 10^3 host-cells and 1 * 10^3 parasites) with a Multidrop Combi dispenser. […] In all wells, the percentage of DMSO never exceeded 0.5%. Plates incubated for four days at 37C, 5% CO2. The substrate used for the assay fluorescence intensity (FLINT) readout was resorufin-beta-D-galactopiranoside (Sigma-Aldrich) at 5uM per well. It was diluted in PBS supplemented with the soft detergent Igepal (Fluka).; assay type: functional, organism-based, Mus musculus; details: Tulahuen, NIH3T3
[12] = system: Trypanosoma brucei brucei; assay: GSK_TCAKS: pIC50 Trypanosoma brucei viability assay using fluorescence intensity. Assay plates (1536-well) were prepared by dispensing 25nL of compound solution per well using an Echo acoustic dispenser (Labcyte).; assay type: functional, organism-based; details: Lister 427, 2 h
NIH3T3 = assay: GSK_TCAKS: pIC50 NIH 3T3 cell line viability assay using luminiscence. Tissue culture surface treated assay plates (1536-well) were used. […] The 100% cells survival control was determined exposing the host-cells to a 0.5% DMSO concentration, whereas the 100% toxicity control was achieved by seeding the cells in presence of Amphotericin B at 50uM. Plates were incubated for four days at 37C, 5% CO2. The assay readout was developed by addition of 5uL of CellTiter-Glo Reagent following the manufacturer's instructions. Luminiscence was measured using a ViewLux.; assay type: functional, cell-based; details: Mus musculus, NIH3T3, 96 h

Row | Compound | IC50 (Leishmania donovani [1]) [µM] | IC50 at 48 h [2] [µM] | IC50 [3] [µM] | IC50 (Trypanosoma cruzi [4]) [µM] | IC50 (Leishmania donovani [5]) [µM] | IC50 (Leishmania donovani [6]) [µM] | IC50 (Trypanosoma cruzi [7]) [µM] | IC50 (Trypanosoma cruzi [8]) [µM] | IC50 (Leishmania donovani [9]) [µM] | IC50 [10] [µM] | IC50 (Trypanosoma cruzi [11]) [µM] | IC50 [12] [µM] | IC50 (NIH3T3) [µM]
1 | COc1ccc(NS(=O)(=O)c2cc(NC(=O)c3ccc([N+](=O)[O-])s3)ccc2OC)cc1 | 0.794 | > 100 | 0.126 | > 50.1 | 12.6 | 0.501 | 0.1 | 0.0794 | 0.794 | 1 | 0.0708 | 0.0501 | > 50.1
2 | CC(=O)Nc1ccc(-c2csc(NC(=O)c3ccc([N+](=O)[O-])s3)n2)cc1 | 1 | 50.1 | 0.158 | 5.01 | 12.6 | 0.398 | 0.126 | 0.1 | 0.794 | 6.31 | 0.126 | 0.0251 | 6.31
3 | N#Cc1cccc(CN2CCC(N(Cc3cccnc3)C(=O)c3cc(F)c(F)cc3F)CC2)c1 | > 50.1 | > 100 | > 39.8 | > 50.1 | > 50.1 | > 50.1 | 0.398 | 0.316 | 12.6 | 0.0501 | 0.398 | > 39.8 | 20
4 | N#Cc1cccc(CN2CCC(c3nc(-c4ccc(C(F)(F)F)nc4)no3)CC2)c1 | > 50.1 | > 100 | > 39.8 | > 50.1 | > 50.1 | 12.6 | 2 | 2.51 | > 50.1 | > 100 | 2 | > 39.8 | > 50.1
5 | COc1ccc(-c2nc3ccncc3c(=O)n2CCOc2ccccc2)cc1 | > 50.1 | > 100 | 31.6 | > 50.1 | > 50.1 | 39.8 | 0.398 | 0.398 | > 50.1 | 0.0398 | 0.631 | 25.1 | 31.6
6 | Cc1cccc(N2CCCN(Cc3c[nH]c4ccccc34)CC2)n1 | 10 | 12.6 | 12.6 | 2.51 | 10 | > 50.1 | 0.398 | 0.316 | 10 | > 100 | 0.316 | 12.6 | 25.1
7 | O=C(CCCn1cnc([N+](=O)[O-])n1)Nc1cccc(Cl)c1 | > 50.1 | > 100 | > 39.8 | > 50.1 | > 50.1 | > 50.1 | 0.501 | 0.158 | > 50.1 | 50.1 | 0.2 | 5.01 | > 50.1
8 | CC1=C(C(=O)Nc2ccc(Cl)cc2)C(c2ccncc2)n2ncc(C(=O)Nc3ccccc3)c2N1 (stereo not given) | > 50.1 | 79.4 | > 39.8 | > 50.1 | 12.6 | 0.126 | 0.02 | 0.02 | > 50.1 | 0.126 | 0.02 | 3.16 | 31.6
9 | O=C(NCCc1cccnc1)c1ccc(-c2ccccc2F)o1 | > 50.1 | > 100 | > 39.8 | > 50.1 | > 50.1 | 20 | 0.2 | 0.2 | > 50.1 | 0.0631 | 0.112 | 31.6 | 39.8
10 | Cc1ccc2c(c1)-c1onc(C(=O)N3CCCCC3c3cccnc3)c1CO2 (stereo not given) | > 50.1 | 50.1 | > 39.8 | > 50.1 | 39.8 | 31.6 | 0.126 | 0.126 | 39.8 | 0.1 | 0.1 | 39.8 | 20
11 | COc1ccc(-c2cc(C)no2)cc1S(=O)(=O)Nc1ccc(F)c(Cl)c1 | 25.1 | 79.4 | 25.1 | 50.1 | 31.6 | 25.1 | 3.16 | 3.98 | 20 | > 100 | 1.58 | 15.8 | 25.1
12 | COc1ccc(NS(=O)(=O)c2cc(-c3cc(C)n[nH]3)ccc2C)cc1OC | 10 | > 100 | 0.631 | > 50.1 | > 50.1 | 1 | 2 | 1.26 | 7.94 | 39.8 | 1.41 | 0.316 | > 50.1
13 | O=S(=O)(c1cccc(CSc2nnc(-c3ccc4c(c3)OCO4)o2)c1)N1CCOCC1 | 0.794 | > 100 | > 39.8 | 25.1 | > 50.1 | 0.501 | 0.1 | 0.0398 | 0.251 | 12.6 | 0.224 | 31.6 | 15.8
14 | O=C(Nc1ccc(C(=O)N2CCCC2c2ccc3c(c2)OCCCO3)cc1)c1ccco1 (stereo not given) | 6.31 | > 100 | 0.316 | > 50.1 | > 50.1 | 0.794 | 1 | 0.631 | 3.16 | 63.1 | 0.501 | 0.2 | > 50.1
15 | CC1CN(S(=O)(=O)c2ccc(NC(=O)c3cc(C4CC4)nc4c3cnn4C(C)C)cc2)CC(C)O1 (stereo not given) | > 50.1 | > 100 | 6.31 | > 50.1 | 10 | 20 | 0.794 | 0.631 | > 50.1 | > 100 | 0.631 | 6.31 | > 50.1
